Data taken from the NIST ThermoML archive (doi:10.1021/je6005423).
± gives the expanded uncertainty stated by the source.

Columns and labels:
[1] = Molar enthalpy of transition or fusion; details: Crystal
[2] = Crystal
[3] = molar heat capacity at constant pressure; details: 101.33 kPa

CN(C)c1ccncc1 [4-(dimethylamino)pyridine]
Details | Molar enthalpy of transition or fusion, Adiabatic calorimetry [kJ/mol] | Molar enthalpy of transition or fusion, DSC [kJ/mol] | Normal melting temperature, Adiabatic calorimetry [°C] | Normal melting temperature, DTA [°C]
[1] | 21.6 ± 0.29 | 21.6 ± 0.64 | – | –
[2] | – | – | 113.94 ± 0.039 | 114.0 ± 0.5

[3], Crystal
Details | molar heat capacity at constant pressure [J/K/mol]
80.03 K | 64.47 ± 1.3
83.52 K | 66.81 ± 1.3
86.44 K | 69.05 ± 1.4
89.41 K | 71.03 ± 1.4
92.44 K | 72.95 ± 1.5
95.51 K | 74.9 ± 1.5
98.51 K | 76.86 ± 1.6
101.43 K | 78.68 ± 1.6
104.42 K | 80.51 ± 1.6
107.48 K | 82.3 ± 1.6
110.47 K | 83.92 ± 1.7
113.41 K | 85.67 ± 1.7
116.41 K | 87.31 ± 1.7
119.47 K | 89.01 ± 1.7
122.49 K | 90.57 ± 1.7
125.46 K | 92.11 ± 1.8
128.49 K | 93.69 ± 1.8
131.59 K | 95.38 ± 1.8
134.65 K | 96.78 ± 1.8
137.66 K | 98.3 ± 1.8
140.65 K | 99.76 ± 1.9
143.69 K | 101.22 ± 1.9
146.8 K | 102.9 ± 1.9
149.88 K | 104.47 ± 1.9
152.93 K | 105.97 ± 1.9
155.94 K | 107.42 ± 2
158.93 K | 108.62 ± 2
161.98 K | 109.91 ± 2
165.1 K | 111.54 ± 2
168.19 K | 113.06 ± 2
171.25 K | 114.49 ± 2
174.28 K | 115.97 ± 2.1
177.29 K | 117.2 ± 2.1
180.27 K | 118.57 ± 2.1
183.32 K | 120.19 ± 2.1
186.44 K | 121.88 ± 2.1
189.53 K | 123.23 ± 2.1
192.6 K | 124.43 ± 2.2
195.65 K | 125.95 ± 2.2
198.67 K | 127.3 ± 2.2
201.68 K | 128.65 ± 2.2
204.66 K | 130 ± 2.2
207.72 K | 131.46 ± 2.2
210.84 K | 133.09 ± 2.3
213.94 K | 134.61 ± 2.3
217.02 K | 135.82 ± 2.3
220.08 K | 139.06 ± 2.3
223.12 K | 141.26 ± 2.4
226.12 K | 143.32 ± 2.4
229.09 K | 145.3 ± 2.4
232.06 K | 146.84 ± 2.4
235.11 K | 149.01 ± 2.5
238.15 K | 150.96 ± 2.5
241.18 K | 152.05 ± 2.5
244.19 K | 153.79 ± 2.5
247.18 K | 155.15 ± 2.5
250.16 K | 156.56 ± 2.6
253.13 K | 157.38 ± 2.6
256.16 K | 158.57 ± 2.6
259.24 K | 159.8 ± 2.6
262.29 K | 161.74 ± 2.6
265.4 K | 163.21 ± 2.6
268.51 K | 165.52 ± 2.7
271.55 K | 167.5 ± 2.7
274.51 K | 168.7 ± 2.7
277.42 K | 169.84 ± 2.7
280.39 K | 171.69 ± 2.7
283.34 K | 173.55 ± 2.8
286.27 K | 175.43 ± 2.8
289.25 K | 177.99 ± 2.8
292.28 K | 179.13 ± 2.8
295.28 K | 180.15 ± 2.9
298.29 K | 181.32 ± 2.9
301.34 K | 183.53 ± 2.9
304.44 K | 184.83 ± 2.9
307.47 K | 185.41 ± 2.9
310.42 K | 187.12 ± 2.9
313.4 K | 188.44 ± 3
316.42 K | 189.79 ± 3
319.4 K | 191.08 ± 3
322.4 K | 192.54 ± 3
325.41 K | 193.75 ± 3
328.42 K | 194.7 ± 3
331.5 K | 195.13 ± 3
334.53 K | 196.95 ± 3.1
337.56 K | 198.33 ± 3.1
340.67 K | 200.84 ± 3.1
342.97 K | 199.88 ± 3.1
343.66 K | 201.99 ± 3.1
343.86 K | 200.32 ± 3.1
345.56 K | 201.09 ± 3.1
346.45 K | 202.23 ± 3.1
346.7 K | 203.24 ± 3.1
348.77 K | 203.52 ± 3.1
349.62 K | 204.76 ± 3.2
349.67 K | 205.23 ± 3.2
351.86 K | 205.79 ± 3.2
352.63 K | 206.7 ± 3.2
352.69 K | 207.19 ± 3.2
354.94 K | 207.38 ± 3.2
355.72 K | 208.46 ± 3.2
355.82 K | 209.44 ± 3.2
358.07 K | 209.19 ± 3.2
358.46 K | 210.78 ± 3.2
359.14 K | 211.21 ± 3.2
361.26 K | 211.54 ± 3.2
361.64 K | 213.95 ± 3.3
362.4 K | 212.78 ± 3.3
364.46 K | 214.96 ± 3.3
364.97 K | 216.45 ± 3.3
365.52 K | 215.57 ± 3.3
367.64 K | 216.47 ± 3.3
368.27 K | 219.21 ± 3.3
368.63 K | 217.48 ± 3.3
370.81 K | 219.17 ± 3.3
371.06 K | 221.32 ± 3.4
371.59 K | 220.81 ± 3.4
373.98 K | 222.94 ± 3.4
374.28 K | 223.05 ± 3.4
374.54 K | 223.68 ± 3.4
377.12 K | 225.02 ± 3.4
377.36 K | 225 ± 3.4
377.66 K | 225.68 ± 3.4
380.18 K | 228.35 ± 3.5
380.23 K | 226.87 ± 3.4
380.77 K | 227.73 ± 3.4
383.33 K | 231.81 ± 3.5

[3], Liquid, Small (less than 1 g) adiabatic calorimetry
Details | molar heat capacity at constant pressure [J/K/mol]
388.4 K | 231.37 ± 1.6
389.73 K | 233.89 ± 1.6
389.99 K | 232.72 ± 1.6
390.88 K | 233.99 ± 1.6
392.95 K | 234.74 ± 1.6
393.17 K | 234.28 ± 1.6
393.33 K | 235.41 ± 1.6
395.77 K | 236.28 ± 1.6
396.07 K | 235.35 ± 1.6
396.35 K | 235.97 ± 1.6
398.22 K | 237.66 ± 1.6
399.18 K | 236.11 ± 1.6
399.52 K | 236.69 ± 1.6
402.29 K | 237.05 ± 1.6
402.68 K | 237.16 ± 1.6
